Structures are written as SMILES.

The test system of the test is Endogenous Huntingtin Protein. Nature of the test: Endogenous Huntingtin Protein Assay (ELISA-based MSD electrochemiluminescence). The following applies: Table 2; MSD plates coated with MW1 (expanded polyglutamine) or MAB2166 capture antibody; "inactive" = result above the detection limit of the assay. Format: cell-based. Summed up: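 MSD electrochemiluminescence sandwich ELISA: capture with MW1 (expanded polyQ) or MAB2166 at 1 µg/mL, samples incubated overnight at 4 °C. Detection by rabbit mAb #56565 then SULFO-TAG anti-rabbit antibody, each 0.25 µg/mL for 1 h at room temperature, read in buffer T on SI 6000 imager.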
`Cc1cn2cc(-c3ccc(-c4cnc(N5CCN(C)[C@H](C)C5)nn4)c(O)c3)cc(F)c2n1` [Cpd 107, 2-{3-[(3R)-3,4-dimethylpiperazin-1-yl]-1,2,4-triazin-6-yl}-5-(8-fluoro-2-methylimidazo[1,2-a]pyridin-6-yl)phenol] showed an IC50 of 16.8 nM.

Turning to `Cn1nnc2cnc(-c3ccc(-c4cnc(N5CCN[C@@H](C6CC6)C5)nn4)c(O)c3)cc21` [Cpd 174, 2-{3-[(3S)-3-cyclopropylpiperazin-1-yl]-1,2,4-triazin-6-yl}-5-(1-methyl-1H-[1,2,3]triazolo[4,5-c]pyridin-6-yl)phenol], the IC50 worked out at 607 nM.

`CC(C)(O)C1CN(c2ncc(-c3ccc(-n4nccn4)cc3O)nn2)CCN1` (centres unmarked) [Cpd 14, 2-{3-[3-(2-hydroxypropan-2-yl)piperazin-1-yl]-1,2,4-triazin-6-yl}-5-(2H-1,2,3-triazol-2-yl)phenol]: inhibition was half-maximal at 12.2 nM (IC50).

As to `Oc1cc(-c2cn[nH]c2)ccc1-c1cnc(N2CC3CCC(C2)N3)nn1` [Cpd 135, 2-[3-(3,8-diazabicyclo[3.2.1]octan-3-yl)-1,2,4-triazin-6-yl]-5-(1H-pyrazol-4-yl)phenol], the IC50 amounted to 185 nM.

Molecule `C[C@@H]1CN(c2ncc(-c3ccc(-c4ncns4)cc3O)nn2)C[C@H](C2CC2)N1` (single isomer, unassigned) [Cpd 269, 2-{3-[(3S,5R)-3-cyclopropyl-5-methylpiperazin-1-yl]-1,2,4-triazin-6-yl}-5-(1,2,4-thiadiazol-5-yl)phenol or 2-{3-[(3R,5S)-3-cyclopropyl-5-methylpiperazin-1-yl]-1,2,4-triazin-6-yl}-5-(1,2,4-thiadiazol-5-yl)phenol] registered a half-inhibitory concentration (IC50) of 53.9 nM.

For the molecule `COC[C@H]1CN(c2ncc(-c3ccc(-c4cn[nH]c4)cc3O)nn2)CCN1` [Cpd 53, 2-{3-[(3R)-3-(methoxymethyl)piperazin-1-yl]-1,2,4-triazin-6-yl}-5-(1H-pyrazol-4-yl)phenol], the IC50 was 435 nM.

The molecule `Cn1nnc2ncc(-c3ccc(-c4cnc(N5CCN[C@@H](C6CC6)C5)nn4)c(O)c3)cc21` [Cpd 169, 2-{3-[(3S)-3-cyclopropylpiperazin-1-yl]-1,2,4-triazin-6-yl}-5-(1-methyl-1H-[1,2,3]triazolo[4,5-b]pyridin-6-yl)phenol] returned a half-inhibitory concentration (IC50) of 355 nM.

The molecule `C[C@H]1CN(c2ncc(-c3ccc(-c4cn[nH]c4)cc3O)nn2)C[C@@H](C2CC2)N1` [Cpd 224, 2-{3-[(3R,5S)-3-cyclopropyl-5-methylpiperazin-1-yl]-1,2,4-triazin-6-yl]-5-(1H-pyrazol-4-yl)phenol] gave a concentration for half-maximal inhibition (IC50) of 232 nM.

The molecule `COc1cc(-c2ccc(-c3cnc(N4C[C@@H](C5CC5)N[C@@H](C)C4)nn3)c(O)c2)ncn1` [Cpd 226, 2-{3-[(3R,5S)-3-cyclopropyl-5-methylpiperazin-1-yl]-1,2,4-triazin-6-yl}-5-(6-methoxypyrimidin-4-yl)phenol] displayed a half-inhibitory concentration (IC50) of 130 nM.

In the case of `CC(C)[C@H]1CN(c2ncc(-c3ccc(-c4ncc(F)s4)cc3O)nn2)CCN1` [Cpd 196, 5-(5-fluoro-1,3-thiazol-2-yl)-2-{3-[(3S)-3-(propan-2-yl)piperazin-1-yl]-1,2,4-triazin-6-yl}phenol], the concentration for half-maximal inhibition (IC50) worked out at 492 nM.

The molecule `CC(C)(O)C1CN(c2ncc(-c3ccc(-c4cn[nH]c4)cc3O)nn2)CCN1` (centres unmarked) [Cpd 13, 2-{3-[3-(2-hydroxypropan-2-yl)piperazin-1-yl]-1,2,4-triazin-6-yl}-5-(1H-pyrazol-4-yl)phenol] had an IC50 of 11.4 nM.

As to `CC(C)[C@H]1CN(c2ncc(-c3ccc(-c4cn(C)nn4)cc3O)nn2)CCN1` [Cpd 260, 5-(1-methyl-1H-1,2,3-triazol-4-yl)-2-{3-[(3S)-3-(propan-2-yl)piperazin-1-yl]-1,2,4-triazin-6-yl}phenol], the IC50 worked out at 417 nM.

Molecule `CCN1CCN(c2ncc(-c3ccc(-c4cc(F)c5nc(C)cn5c4)cc3O)nn2)C[C@H]1C` [Cpd 89, 2-{3-[(3R)-4-ethyl-3-methylpiperazin-1-yl]-1,2,4-triazin-6-yl}-5-(8-fluoro-2-methylimidazo[1,2-a]pyridin-6-yl)phenol] yielded an IC50 of 6.7 nM.

Molecule `Oc1cc(-c2cn[nH]c2F)cc(F)c1-c1cnc(N2CCNC(C3CC3)C2)nn1` (centres unmarked) [Cpd 32, 2-[3-(3-cyclopropylpiperazin-1-yl)-1,2,4-triazin-6-yl]-3-fluoro-5-(5-fluoro-1H-pyrazol-4-yl)phenol] came in with an IC50 of 40.2 nM.

In turn, `CC(C)[C@H]1CN(c2ncc(-c3ccc(-c4ncns4)cc3O)nn2)C[C@@H](C)N1` (single isomer, unassigned) [Cpd 268, 2-{3-[(3R,5S)-3-methyl-5-(propan-2-yl)piperazin-1-yl]-1,2,4-triazin-6-yl}-5-(1,2,4-thiadiazol-5-yl)phenol or 2-{3-[(3S,5R)-3-methyl-5-(propan-2-yl)piperazin-1-yl]-1,2,4-triazin-6-yl}-5-(1,2,4-thiadiazol-5-yl)phenol] yielded an IC50 of 124 nM.

`CCN1CCN(c2ncc(-c3ccc(-c4cc(F)c5nc(C)cn5c4)cc3O)nn2)CC1` [Cpd 77, 2-[3-(4-ethylpiperazin-1-yl)-1,2,4-triazin-6-yl]-5-(8-fluoro-2-methylimidazo[1,2-a]pyridin-6-yl)phenol] came in with an IC50 of 4.9 nM.

`CC1CN(c2ncc(-c3ccc(-c4cc(F)c5nn(C)cc5c4)cc3O)nn2)CCN1` (centres unmarked) [Cpd 67, 5-(7-fluoro-2-methyl-2H-indazol-5-yl)-2-[3-(3-methylpiperazin-1-yl)-1,2,4-triazin-6-yl]phenol] showed a half-maximal inhibitory concentration (IC50) of 2.1 nM.

As to `Oc1cc(-c2ncco2)ccc1-c1cnc(N2CCN[C@@H](C3CC3)C2)nn1` [Cpd 233, 2-{3-[(3S)-3-cyclopropylpiperazin-1-yl]-1,2,4-triazin-6-yl}-5-(1,3-oxazol-2-yl)phenol], the half-inhibitory concentration (IC50) is 17.7 nM.

In the case of `Cc1cn2cc(-c3ccc(-c4cnc(N5C[C@@H](C)N(C)[C@@H](C)C5)nn4)c(O)c3)cc(F)c2n1` [Cpd 94, 5-(8-fluoro-2-methylimidazo[1,2-a]pyridin-6-yl)-2-{3-[(3R,5S)-3,4,5-trimethylpiperazin-1-yl]-1,2,4-triazin-6-yl}phenol], it took 8.3 nM to reach half-maximal inhibition (IC50).

On to `Cc1cn2cc(-c3ccc(-c4cnc(N5CCN[C@@H](C(C)C)C5)nn4)c(O)c3)cc(C)c2n1` [Cpd 131, 5-(2,8-dimethylimidazo[1,2-a]pyridin-6-yl)-2-{3-[(3S)-3-(propan-2-yl)piperazin-1-yl]-1,2,4-triazin-6-yl}phenol], for which the IC50 was found to be 7.6 nM.

Regarding `Oc1cc(-c2cn[nH]c2)ccc1-c1cnc(N2CCN(C3CC3)CC2)nn1` [Cpd 63, 2-[3-(4-cyclopropylpiperazin-1-yl)-1,2,4-triazin-6-yl]-5-(1H-pyrazol-4-yl)phenol], the “IC50 (nM)” value is “inactive”.

Molecule `COc1cc(-c2ccc(-c3cnc(N4C[C@@H](C)N[C@@H](C(C)(C)C)C4)nn3)c(O)c2)ncn1` [Cpd 255, 2-{3-[(3S,5R)-3-tert-butyl-5-methylpiperazin-1-yl]-1,2,4-triazin-6-yl}-5-(6-methoxypyrimidin-4-yl)phenol] had an IC50 of 341 nM.

With `C[C@@H]1CN(c2ncc(-c3ccc(-n4nccn4)cc3O)nn2)C[C@H](C)N1` [Cpd 54, 2-{3-[(3R,5S)-3,5-dimethylpiperazin-1-yl]-1,2,4-triazin-6-yl}-5-(2H-1,2,3-triazol-2-yl)phenol], the IC50 is 440 nM.

`Cc1cn2nc(-c3ccc(-c4cnc(N5C[C@@H](C)N(C)[C@@H](C)C5)nn4)c(O)c3)cc(C)c2n1` [Cpd 111, 5-(2,8-dimethylimidazo[1,2-b]pyridazin-6-yl)-2-{3-[(3R,5S)-3,4,5-trimethylpiperazin-1-yl]-1,2,4-triazin-6-yl}phenol] gave a concentration for half-maximal inhibition (IC50) of 27.5 nM.

The molecule `Cc1cc(-c2ccc(-c3cnc(N4CCN[C@@H](C(C)C)C4)nn3)c(O)c2)cc2cn(C)nc12` [Cpd 140, 5-(2,7-dimethyl-2H-indazol-5-yl)-2-{3-[(3S)-3-(propan-2-yl)piperazin-1-yl]-1,2,4-triazin-6-yl}phenol] gave an IC50 of 5.8 nM.

Molecule `COc1cc(-c2ccc(-c3cnc(N4C[C@@H](C)N[C@@H](C(C)C)C4)nn3)c(O)c2)ncn1` [Cpd 230, 5-(6-methoxypyrimidin-4-yl)-2-{3-[(3R,5S)-3-methyl-5-(propan-2-yl)piperazin-1-yl]-1,2,4-triazin-6-yl}phenol] gave an IC50 of 11.3 nM.

Take `Oc1cc(-c2cn[nH]c2)ccc1-c1cnc(N2CCNC(CC(F)(F)F)C2)nn1` (centres unmarked) [Cpd 146, 5-(1H-pyrazol-4-yl)-2-{3-[3-(2,2,2-trifluoroethyl)piperazin-1-yl]-1,2,4-triazin-6-yl}phenol]: half-maximal inhibition (IC50) was put at 539 nM.

As for `[2H]C([2H])([2H])Oc1cc(-c2ccc(-c3cnc(N4CCNC(C(C)(C)O)C4)nn3)c(O)c2)ncn1` (centres unmarked) [Cpd 8, 2-{3-[3-(2-hydroxypropan-2-yl)piperazin-1-yl]-1,2,4-triazin-6-yl}-5-{6-[(^2H3)methyloxy]pyrimidin-4-yl}phenol], half-maximal inhibition (IC50) was put at 8.7 nM.

The molecule `CC(C)[C@H]1CN(c2ncc(-c3ccc(-c4nnc(C5CC5)o4)cc3O)nn2)CCN1` [Cpd 199, 5-(5-cyclopropyl-1,3,4-oxadiazol-2-yl)-2-{3-[(3S)-3-(propan-2-yl)piperazin-1-yl]-1,2,4-triazin-6-yl}phenol] displayed a 50% inhibitory concentration (IC50) of 526 nM.

With `[2H]C([2H])([2H])n1cc(-c2ccc(-c3cnc(N4C[C@@H](C)N[C@@H](C)C4)nn3)c(O)c2)cn1` [Cpd 49, 2-{3-[(3R,5S)-3,5-dimethylpiperazin-1-yl]-1,2,4-triazin-6-yl}-5-[1-(^2H3)methyl-1H-pyrazol-4-yl]phenol], half-maximal inhibition (IC50) was put at 256 nM.

In the case of `[2H]C([2H])([2H])n1cc(-c2ccc(-c3cnc(N4CCN[C@@H](C5CC5)C4)nn3)c(O)c2)cn1` [Cpd 9, 2-{3-[(3S)-3-cyclopropylpiperazin-1-yl]-1,2,4-triazin-6-yl}-5-[1-(^2H3)methyl-1H-pyrazol-4-yl]phenol], the IC50 was found to be 9.5 nM.

In turn, `CC[C@@H]1CN(c2ncc(-c3ccc(-c4cn[nH]c4)cc3O)nn2)CCN1` [Cpd 48, 2-{3-[(3R)-3-ethylpiperazin-1-yl]-1,2,4-triazin-6-yl}-5-(1H-pyrazol-4-yl)phenol] gave an IC50 of 167 nM.

Source of the values: patent US20230234942A1, “COMPOUNDS FOR TREATING HUNTINGTON'S DISEASE” (PTC Therapeutics, Inc., priority 2020, published 2023).
